# Measurements as given in patent US20240209028A1, “CNP COMPOUNDS” (priority 2022, published 2024).
# Starred links: 1 amine or outer side, 2 acyl side, 3 side chain; linkers in the order of their positions; H or OH if unused. Positions of bridges follow the written chain, without caps; N, C: chain ends. Residues, ends and D or L forms follow the SMILES beside them. *: point of attachment. C18 diacid = O=C(O)CCCCCCCCCCCCCCCCC(=O)*; γGlu = O=C(O)[C@H](CCC(=O)[*:2])N[*:1]; AEEA = NCCOCCOCC(=O)O
# Molecular target: T1, human natriuretic peptide receptor 2 (hNPR2) (Homo sapiens, UniProt P20594)
# T1 construct: expressed in transfected cells; host or cells: HEK293 (ATCC CRL-1573), clone 35, co-transfected with pGloSensor-42F
# T1 sequence (P20594 23-1047): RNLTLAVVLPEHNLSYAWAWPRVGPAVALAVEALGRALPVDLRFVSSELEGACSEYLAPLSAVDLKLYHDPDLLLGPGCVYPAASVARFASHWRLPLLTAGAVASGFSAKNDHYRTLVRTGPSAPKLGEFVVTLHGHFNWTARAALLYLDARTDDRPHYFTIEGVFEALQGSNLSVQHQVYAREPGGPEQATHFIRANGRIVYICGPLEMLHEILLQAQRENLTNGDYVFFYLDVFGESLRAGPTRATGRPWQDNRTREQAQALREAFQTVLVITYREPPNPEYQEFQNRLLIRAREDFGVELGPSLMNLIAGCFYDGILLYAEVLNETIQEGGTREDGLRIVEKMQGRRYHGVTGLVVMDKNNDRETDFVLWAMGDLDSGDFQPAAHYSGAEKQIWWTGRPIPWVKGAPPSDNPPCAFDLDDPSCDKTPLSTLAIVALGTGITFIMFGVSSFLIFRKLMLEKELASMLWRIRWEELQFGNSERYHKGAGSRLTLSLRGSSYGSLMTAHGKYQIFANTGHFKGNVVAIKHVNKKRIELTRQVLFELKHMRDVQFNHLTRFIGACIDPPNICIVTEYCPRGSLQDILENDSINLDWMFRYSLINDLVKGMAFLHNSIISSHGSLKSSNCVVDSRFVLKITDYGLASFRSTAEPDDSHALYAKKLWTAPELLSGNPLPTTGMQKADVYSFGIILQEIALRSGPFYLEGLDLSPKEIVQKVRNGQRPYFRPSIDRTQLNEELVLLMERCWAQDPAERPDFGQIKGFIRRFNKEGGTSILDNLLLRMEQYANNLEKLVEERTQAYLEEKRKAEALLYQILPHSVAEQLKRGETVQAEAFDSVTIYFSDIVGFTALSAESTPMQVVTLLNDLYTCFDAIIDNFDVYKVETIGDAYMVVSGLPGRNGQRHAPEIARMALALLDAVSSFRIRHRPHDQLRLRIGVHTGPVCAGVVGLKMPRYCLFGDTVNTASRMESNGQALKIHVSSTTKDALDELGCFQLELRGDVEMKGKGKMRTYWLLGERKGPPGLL
# Experiment: In vitro hNPR2 activity assay (cGMP GloSensor reporter, HEK293)
# Format: cell-based
# Settings: potency relative to CNP22 (0065)
# Method in brief: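 Potency is the EC50 from a four-parameter logistic fit, also expressed relative to the in-plate CNP22 control (×100), with at least two replicates. Compounds (ten concentrations, […], HSA-free diluent with 1% OVA, 0.01% Tween20) were incubated 30 min at 37 °C on HEK293 cells co-expressing hNPR2 and a GloSensor cGMP luciferase. Luminescence detected with Bright-Glo.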
row,Structure (SMILES),hNPR2 0% HSA. [EC50% rel CNP] [%]
1,CC[C@H](C)[C@@H]1NC(=O)[C@H](CCCNC(=N)N)NC(=O)[C@H](CC(=O)O)NC(=O)[C@H](CC(C)C)NC(=O)[C@@H]2CCCN2C(=O)[C@H](CC(C)C)NC(=O)CNC(=O)[C@H](Cc2ccccc2)NC(=O)[C@@H](NC(=O)CNC(=O)[C@H](CO)NC(=O)[C@H](CO)NC(=O)[C@H](CC(C)C)NC(=O)CNC(=O)[C@H](CCCCN)NC(=O)[C@H](CCCCN)NC(=O)[C@H](CCC(N)=O)NC(=O)[C@H](C)NC(=O)CNC(=O)[C@H](CCC(=O)O)NC(=O)[C@H](Cc2ccc(O)cc2)NC(=O)COCCOCCNC(=O)COCCOCCNC(=O)COCCOCCNC(=O)COCCOCCNC(=O)CC[C@H](NC(=O)CCCCCCCCCCCCCCCCC(=O)O)C(=O)O)CSSC[C@@H](C(=O)O)NC(=O)CNC(=O)[C@H](CC(C)C)NC(=O)CNC(=O)[C@H](CO)NC(=O)[C@H](CC(C)C)NC(=O)[C@H](CO)NC(=O)CNC1=O [compound 1392] ({C18 diacid-γGlu-AEEA-AEEA-AEEA-AEEA}-YEGAQKKGLSSGCFGLPLDRIGSLSGLGC-OH; disulfide 13-29),29.5
2,CC[C@H](C)[C@@H]1NC(=O)[C@H](CCCNC(=N)N)NC(=O)[C@H](CC(=O)O)NC(=O)[C@H](CC(C)C)NC(=O)[C@@H]2CCCN2C(=O)[C@H](CC(C)C)NC(=O)CNC(=O)[C@H](Cc2ccccc2)NC(=O)[C@@H](NC(=O)CNC(=O)[C@H](CCC(N)=O)NC(=O)[C@H](CO)NC(=O)[C@H](CO)NC(=O)CNC(=O)[C@H](Cc2c[nH]cn2)NC(=O)[C@H](Cc2c[nH]cn2)NC(=O)[C@H](CCC(N)=O)NC(=O)[C@H](C)NC(=O)CNC(=O)[C@H](Cc2c[nH]cn2)NC(=O)[C@H](Cc2ccc(O)cc2)NC(=O)[C@H](CCCCN)NC(=O)[C@H](Cc2c[nH]cn2)NC(=O)[C@H](C)NC(=O)[C@H](CCC(N)=O)NC(=O)[C@@H]2CCCN2C(=O)[C@H](Cc2c[nH]cn2)NC(=O)[C@H](CCC(=O)O)NC(=O)[C@H](CCC(N)=O)NC(=O)COCCOCCNC(=O)COCCOCCNC(=O)CC[C@H](NC(=O)CCCCCCCCCCCCCCCCC(=O)O)C(=O)O)CSSC[C@@H](C(=O)O)NC(=O)CNC(=O)[C@H](CC(C)C)NC(=O)CNC(=O)[C@H](CO)NC(=O)[C@H](CC(C)C)NC(=O)[C@H](CO)NC(=O)CNC1=O [compound 1381] ({C18 diacid-γGlu-AEEA-AEEA}-QEHPQAHKYHGAQHHGSSQGCFGLPLDRIGSLSGLGC-OH; disulfide 21-37),38.7
